The results in this text go back to ChEMBL document CHEMBL1132045, “New growth hormone secretagogues: C-terminal modified sulfonamide-analogues of NN703” (Bioorg Med Chem Lett, 1999).

The species named for the assay is Rattus norvegicus. Description: Compound was tested in vitro for growth hormone release in rat pituitary model. Type of assay: functional.
The molecule `CN(C(=O)[C@@H](Cc1ccc2ccccc2c1)N(C)C(=O)/C=C/CC(C)(C)N)[C@@H](CNS(C)(=O)=O)Cc1ccccc1` registered a concentration for a half-maximal effect (EC50) of 2.5 nM. This lies in the single-digit nanomolar range. The molecule `CN(C(=O)[C@@H](Cc1ccc2ccccc2c1)N(C)C(=O)/C=C/CC(C)(C)N)[C@@H](CNC(=O)CCCO)Cc1ccccc1` gave a 50% effective concentration (EC50) of 34 nM. As for `CNC(=O)[C@@H](Cc1ccccc1)N(C)C(=O)[C@@H](Cc1ccc2ccccc2c1)N(C)C(=O)/C=C/CC(C)(C)N` [TABIMORELIN], the 50% effective concentration (EC50) amounted to 2.7 nM.

As for `CN(C(=O)[C@@H](Cc1ccc2ccccc2c1)N(C)C(=O)/C=C/CC(C)(C)N)[C@H](Cc1cccs1)CN(C)S(C)(=O)=O`, the EC50 was 3 nM.

The molecule `CC(=O)NC[C@@H](Cc1ccccc1)N(C)C(=O)[C@@H](Cc1ccc2ccccc2c1)N(C)C(=O)/C=C/CC(C)(C)N` registered an EC50 of 25 nM.
